According to patent publication US11981658B2, “Substituted aminopyridine compounds as EGFR inhibitors” (YUHAN CORPORATION, priority 2021, dated 2024):
Like-named read-outs stand apart in the source and are kept apart here.

Tests used:
[1] = target: EGFR L858R/C797S (Homo sapiens, UniProt P00533, C797S/L858R); assay: Biochemical EGFR kinase inhibition assay (Lance Ultra TR-FRET), double mutant L858R/C797S
How it was run: (§1)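 Enzyme reactions lasted 1 hour at room temperature with test compounds between 0.003 and 10 μM, followed by 10 mM EDTA quench.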

[2] = target: EGFR wildtype (WT) (Homo sapiens, UniProt P00533); assay: Biochemical EGFR kinase inhibition assay (Lance Ultra TR-FRET), wildtype
How it was run: as §1

[3] = target: EGFR Del19/T790M/C797S (Homo sapiens, UniProt P00533, C797S/DEL746-750/T790M); assay: Biochemical EGFR kinase inhibition assay (Lance Ultra TR-FRET), triple mutant del19/T790M/C797S
How it was run: as §1

[4] = target: EGFR L858R/T790M/C797S (Homo sapiens, UniProt P00533, C797S/L858R/T790M); assay: Biochemical EGFR kinase inhibition assay (Lance Ultra TR-FRET), triple mutant L858R/T790M/C797S
How it was run: as §1

[5] = target: EGFR Del19/C797S (Homo sapiens, UniProt P00533, C797S/DEL746-750); assay: Biochemical EGFR kinase inhibition assay (Lance Ultra TR-FRET), double mutant del19/C797S
How it was run: as §1

[6] = IC50 L858R/C797S (nM), 100 μM ATP
[7] = IC50 Del19/T790M/C797S (nM), 100 μM ATP
[8] = IC50 L858R/T790M/C797S (nM), 100 μM ATP
[9] = IC50 Del19/C797S (nM), 100 μM ATP
[10] = Km ATP, read-out: IC50 L858R/C797S (nM) Km ATP
[11] = Km ATP, read-out: IC50 WT (nM) Km ATP
[12] = Km ATP, read-out: IC50 Del19/T790M/C797S (nM) Km ATP
[13] = Km ATP, read-out: IC50 L858R/T790M/C797S (nM) Km ATP
[14] = Km ATP, read-out: IC50 Del19/C797S (nM) Km ATP
[15] = Km ATP, read-out: IC50 L858R/C797S (nM), Km ATP
[16] = Km ATP, read-out: IC50 WT (nM), Km ATP
[17] = Km ATP, read-out: IC50 Del19/T790M/C797S (nM), Km ATP
[18] = Km ATP, read-out: IC50 L858R/T790M/C797S (nM), Km ATP
[19] = Km ATP, read-out: IC50 Del19/C797S (nM), Km ATP
[20] = ATP at Km, read-out: IC50 L858R/C797S (nM), Km ATP
[21] = ATP at Km, read-out: IC50 WT (nM), Km ATP
[22] = ATP at Km, read-out: IC50 Del19/T790M/C797S (nM), Km ATP
[23] = ATP at Km, read-out: IC50 L858R/T790M/C797S (nM), Km ATP
[24] = ATP at Km, read-out: IC50 Del19/C797S (nM), Km ATP

EGFR wildtype (WT), sequence (P00533 25-1210): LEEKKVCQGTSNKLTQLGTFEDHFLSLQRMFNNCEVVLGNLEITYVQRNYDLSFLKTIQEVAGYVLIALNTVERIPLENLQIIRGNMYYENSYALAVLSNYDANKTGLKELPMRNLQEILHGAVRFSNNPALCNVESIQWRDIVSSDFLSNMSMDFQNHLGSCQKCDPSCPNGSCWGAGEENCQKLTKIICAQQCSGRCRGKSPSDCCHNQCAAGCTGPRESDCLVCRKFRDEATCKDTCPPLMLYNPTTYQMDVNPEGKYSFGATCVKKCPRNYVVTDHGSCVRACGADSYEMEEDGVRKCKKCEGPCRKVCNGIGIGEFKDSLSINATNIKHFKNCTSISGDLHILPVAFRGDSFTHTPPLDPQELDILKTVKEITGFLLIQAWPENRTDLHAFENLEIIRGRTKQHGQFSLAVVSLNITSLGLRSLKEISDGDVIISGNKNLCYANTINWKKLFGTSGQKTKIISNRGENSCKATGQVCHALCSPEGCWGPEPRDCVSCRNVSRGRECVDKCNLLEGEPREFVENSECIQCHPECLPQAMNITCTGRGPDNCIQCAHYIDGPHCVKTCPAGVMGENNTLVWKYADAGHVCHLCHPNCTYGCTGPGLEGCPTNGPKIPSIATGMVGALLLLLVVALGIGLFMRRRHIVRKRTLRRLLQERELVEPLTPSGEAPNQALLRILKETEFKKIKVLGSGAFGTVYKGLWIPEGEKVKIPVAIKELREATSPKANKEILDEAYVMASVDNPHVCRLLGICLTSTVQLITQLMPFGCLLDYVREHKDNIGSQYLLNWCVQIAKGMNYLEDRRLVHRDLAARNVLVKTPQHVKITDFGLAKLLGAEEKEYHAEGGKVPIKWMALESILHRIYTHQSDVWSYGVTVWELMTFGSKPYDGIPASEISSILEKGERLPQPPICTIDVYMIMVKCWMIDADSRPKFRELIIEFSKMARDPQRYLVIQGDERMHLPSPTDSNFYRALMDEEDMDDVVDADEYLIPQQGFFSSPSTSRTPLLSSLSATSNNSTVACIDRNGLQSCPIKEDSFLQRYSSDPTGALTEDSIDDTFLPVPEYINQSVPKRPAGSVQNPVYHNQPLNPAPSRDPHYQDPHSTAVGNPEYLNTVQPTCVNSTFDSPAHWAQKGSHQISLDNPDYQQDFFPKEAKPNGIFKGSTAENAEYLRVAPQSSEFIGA
EGFR Del19/C797S, sequence (P00533 with tags, fused parts or gaps DEL746-750/C797S): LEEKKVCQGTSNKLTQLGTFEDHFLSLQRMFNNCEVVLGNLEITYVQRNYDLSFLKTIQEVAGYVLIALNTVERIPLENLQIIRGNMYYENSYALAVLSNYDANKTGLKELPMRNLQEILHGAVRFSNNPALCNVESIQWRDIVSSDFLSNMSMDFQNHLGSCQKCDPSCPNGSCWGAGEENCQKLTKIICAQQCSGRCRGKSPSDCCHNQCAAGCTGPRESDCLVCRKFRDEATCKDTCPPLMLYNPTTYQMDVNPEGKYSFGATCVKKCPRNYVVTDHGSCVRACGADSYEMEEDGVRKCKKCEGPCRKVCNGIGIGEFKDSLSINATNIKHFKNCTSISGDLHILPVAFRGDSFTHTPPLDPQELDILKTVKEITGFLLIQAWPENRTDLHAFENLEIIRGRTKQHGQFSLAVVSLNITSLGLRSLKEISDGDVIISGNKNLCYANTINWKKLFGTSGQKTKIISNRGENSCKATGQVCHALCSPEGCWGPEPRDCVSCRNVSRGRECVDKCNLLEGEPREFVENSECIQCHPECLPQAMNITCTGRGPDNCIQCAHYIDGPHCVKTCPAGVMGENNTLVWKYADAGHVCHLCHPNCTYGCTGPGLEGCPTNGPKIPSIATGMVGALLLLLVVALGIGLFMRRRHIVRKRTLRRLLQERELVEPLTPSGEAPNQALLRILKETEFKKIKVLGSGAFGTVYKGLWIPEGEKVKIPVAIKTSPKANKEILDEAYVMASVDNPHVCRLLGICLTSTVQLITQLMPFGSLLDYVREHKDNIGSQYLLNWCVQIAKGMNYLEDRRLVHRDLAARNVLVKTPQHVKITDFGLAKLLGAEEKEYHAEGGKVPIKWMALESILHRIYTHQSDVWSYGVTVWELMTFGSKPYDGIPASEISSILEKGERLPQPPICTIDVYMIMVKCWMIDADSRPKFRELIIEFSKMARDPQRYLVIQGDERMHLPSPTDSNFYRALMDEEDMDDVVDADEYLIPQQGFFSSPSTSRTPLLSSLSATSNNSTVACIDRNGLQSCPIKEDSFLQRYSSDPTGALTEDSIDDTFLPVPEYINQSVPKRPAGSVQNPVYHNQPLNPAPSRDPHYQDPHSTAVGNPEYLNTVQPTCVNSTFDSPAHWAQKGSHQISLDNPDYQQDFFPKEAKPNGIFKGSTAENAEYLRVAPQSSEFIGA
EGFR L858R/T790M/C797S, sequence (P00533 25-1210 T790M/C797S/L858R): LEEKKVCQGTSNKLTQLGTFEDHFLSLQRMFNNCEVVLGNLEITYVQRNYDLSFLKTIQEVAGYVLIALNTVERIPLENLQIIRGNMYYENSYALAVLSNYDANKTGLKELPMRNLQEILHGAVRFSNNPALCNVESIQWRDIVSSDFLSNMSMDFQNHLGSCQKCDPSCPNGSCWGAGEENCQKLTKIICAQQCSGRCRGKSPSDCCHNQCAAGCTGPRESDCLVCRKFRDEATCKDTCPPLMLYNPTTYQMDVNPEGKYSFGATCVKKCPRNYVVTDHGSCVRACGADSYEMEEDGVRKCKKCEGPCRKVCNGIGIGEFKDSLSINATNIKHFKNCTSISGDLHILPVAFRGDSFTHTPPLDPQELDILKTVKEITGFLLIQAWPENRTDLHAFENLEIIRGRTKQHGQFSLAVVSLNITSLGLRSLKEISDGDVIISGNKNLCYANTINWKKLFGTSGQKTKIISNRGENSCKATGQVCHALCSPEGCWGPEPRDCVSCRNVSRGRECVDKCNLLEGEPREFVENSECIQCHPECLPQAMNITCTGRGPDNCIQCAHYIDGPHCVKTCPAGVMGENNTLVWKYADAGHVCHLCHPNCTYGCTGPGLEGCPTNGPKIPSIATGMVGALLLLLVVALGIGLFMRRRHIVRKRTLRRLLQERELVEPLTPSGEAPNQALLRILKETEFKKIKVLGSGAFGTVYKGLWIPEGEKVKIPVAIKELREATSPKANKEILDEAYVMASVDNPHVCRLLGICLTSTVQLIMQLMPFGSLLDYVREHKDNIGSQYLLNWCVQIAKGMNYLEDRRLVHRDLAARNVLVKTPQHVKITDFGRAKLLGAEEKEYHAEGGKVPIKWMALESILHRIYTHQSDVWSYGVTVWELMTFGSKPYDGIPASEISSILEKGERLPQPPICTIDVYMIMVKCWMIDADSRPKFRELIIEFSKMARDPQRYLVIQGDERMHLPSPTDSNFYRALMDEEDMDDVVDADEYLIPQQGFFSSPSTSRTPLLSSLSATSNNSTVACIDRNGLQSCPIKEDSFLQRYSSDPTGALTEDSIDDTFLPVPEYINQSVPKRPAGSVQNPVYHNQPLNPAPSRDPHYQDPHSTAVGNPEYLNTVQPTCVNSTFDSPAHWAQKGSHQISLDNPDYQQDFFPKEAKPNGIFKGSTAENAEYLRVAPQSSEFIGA
EGFR Del19/T790M/C797S, sequence (P00533 with tags, fused parts or gaps DEL746-750/T790M/C797S): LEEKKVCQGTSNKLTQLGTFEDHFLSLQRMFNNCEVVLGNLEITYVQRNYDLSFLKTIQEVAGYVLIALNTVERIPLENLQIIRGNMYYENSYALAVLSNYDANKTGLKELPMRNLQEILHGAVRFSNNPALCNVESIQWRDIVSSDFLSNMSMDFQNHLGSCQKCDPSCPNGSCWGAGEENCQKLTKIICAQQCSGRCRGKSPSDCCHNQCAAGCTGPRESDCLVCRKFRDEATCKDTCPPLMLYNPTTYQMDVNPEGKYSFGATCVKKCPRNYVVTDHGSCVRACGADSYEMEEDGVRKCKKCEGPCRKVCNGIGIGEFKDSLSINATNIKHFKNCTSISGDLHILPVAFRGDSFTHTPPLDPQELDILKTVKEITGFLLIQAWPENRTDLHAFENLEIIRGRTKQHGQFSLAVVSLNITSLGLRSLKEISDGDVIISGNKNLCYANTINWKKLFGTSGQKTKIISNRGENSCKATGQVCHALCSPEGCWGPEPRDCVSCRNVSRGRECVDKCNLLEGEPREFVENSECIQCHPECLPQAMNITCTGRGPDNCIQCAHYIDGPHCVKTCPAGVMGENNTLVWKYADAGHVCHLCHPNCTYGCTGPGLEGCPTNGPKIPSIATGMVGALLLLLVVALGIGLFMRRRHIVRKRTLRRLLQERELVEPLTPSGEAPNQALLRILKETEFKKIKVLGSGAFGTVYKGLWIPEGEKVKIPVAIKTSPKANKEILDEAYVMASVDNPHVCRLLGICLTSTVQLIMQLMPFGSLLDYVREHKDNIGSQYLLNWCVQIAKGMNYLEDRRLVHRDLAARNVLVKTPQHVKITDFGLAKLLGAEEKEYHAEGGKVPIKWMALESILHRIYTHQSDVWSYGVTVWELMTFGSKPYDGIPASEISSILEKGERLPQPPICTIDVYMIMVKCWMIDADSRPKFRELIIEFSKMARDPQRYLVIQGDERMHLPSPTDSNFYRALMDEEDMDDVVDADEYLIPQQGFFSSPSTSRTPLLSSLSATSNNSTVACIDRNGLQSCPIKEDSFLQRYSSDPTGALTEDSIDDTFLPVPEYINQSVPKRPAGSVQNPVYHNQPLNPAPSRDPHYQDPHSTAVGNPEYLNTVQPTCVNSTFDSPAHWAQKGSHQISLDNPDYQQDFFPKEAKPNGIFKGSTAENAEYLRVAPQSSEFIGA

| Compound | IC50 [1, 6] [nM] | IC50 ([2]; IC50 WT (nM), 100 μM ATP) [nM] | IC50 [3, 7] [nM] | IC50 [4, 8] [nM] | IC50 [5, 9] [nM] | IC50 [1, 10] [nM] | IC50 [2, 11] [nM] | IC50 [3, 12] [nM] | IC50 [4, 13] [nM] | IC50 [5, 14] [nM] | IC50 [1, 15] [nM] | IC50 [2, 16] [nM] | IC50 [3, 17] [nM] | IC50 [4, 18] [nM] | IC50 [5, 19] [nM] | IC50 [1, 20] [nM] | IC50 [2, 21] [nM] | IC50 [3, 22] [nM] | IC50 [4, 23] [nM] | IC50 [5, 24] [nM] |
| --- | --- | --- | --- | --- | --- | --- | --- | --- | --- | --- | --- | --- | --- | --- | --- | --- | --- | --- | --- | --- |
| CC(C)CCNC1CCN(c2cc(Nc3ccnc(-c4cnn(S(=O)(=O)C5CC5)c4)n3)ncc2C#Cc2cnn(C)c2)CC1 [Example 125, 2-(1-(Cyclopropylsulfonyl)-1H-pyrazol-4-yl)-N-(4-(4-(isopentylamino)piperidin-1-yl)-5-((1-methyl-1H-pyrazol-4-yl)ethynyl)pyridin-2-yl)pyrimidin-4-amine] | 330 | > 10000 | 5.6 | 5.6 | 34.2 |  |  |  |  |  |  |  |  |  |  |  |  |  |  |  |
| CN(C)CCNC1CCN(c2cc(Nc3ccnc(-c4cnn(S(=O)(=O)C5CC5)c4)n3)ncc2C#Cc2cnn(C(F)(F)F)c2)CC1 [Example 143, N^1-(1-(2-((2-(1-(Cyclopropylsulfonyl)-1H-pyrazol-4-yl)pyrimidin-4-yl)amino)-5-((1-(trifluoromethyl)-1H-pyrazol-4-yl)ethynyl)pyridin-4-yl)piperidin-4-yl)-N^2,N^2-dimethylethane-1,2-diamine] | 83.5 | > 10000 | 0.5 | 0.9 | 1.9 | 1.8 | 14.3 | 0.5 | 0.3 | 1.2 |  |  |  |  |  |  |  |  |  |  |
| CC1(C)CN(c2cc(Nc3ccnc(-c4cnn(S(=O)(=O)C5CC5)c4)n3)ncc2C#Cc2ccsc2)CCC1O (stereo not shown) [Example 229, 1-(2-((2-(1-(Cyclopropylsulfonyl)-1H-pyrazol-4-yl)pyrimidin-4-yl)amino)-5-(thiophen-3-ylethynyl)pyridin-4-yl)-3,3-dimethylpiperidin-4-ol] | 368 | > 10000 | 8.9 | 26.9 | 175 |  |  |  |  |  |  |  |  |  |  |  |  |  |  |  |
| O=S(=O)(C1CC1)n1cc(-c2nccc(Nc3cc(N[C@H]4CC[C@@H](CO)CC4)c(C#Cc4cnn(CCF)c4)cn3)n2)cn1 [Example 379, ((1s,4s)-4-((2-((2-(1-(Cyclopropylsulfonyl)-1H-pyrazol-4-yl)pyrimidin-4-yl)amino)-5-((1-(2-fluoroethyl)-1H-pyrazol-4-yl)ethynyl)pyridin-4-yl)amino)cyclohexyl)methanol] | 30.1 | > 10000 | 0.7 | 0.8 | 3.9 |  |  |  |  |  | 1.9 | 9.7 | 0.6 | 0.4 | 1.9 |  |  |  |  |  |
| CC(O)C1CCN(c2cc(Nc3ccnc(-c4cnn(S(=O)(=O)C5CC5)c4)n3)ncc2C#Cc2cnn(C(F)(F)F)c2)CC1 (stereo not shown) [Example 328, 1-(1-(2-((2-(1-(Cyclopropylsulfonyl)-1H-pyrazol-4-yl)pyrimidin-4-yl)amino)-5-((1-(trifluoromethyl)-1H-pyrazol-4-yl)ethynyl)pyridin-4-yl)piperidin-4-yl)ethan-1-ol] | 47.4 | > 10000 | 3.1 | 22.7 | 648 |  |  |  |  |  |  |  |  |  |  | 25.8 | 162 | 5.3 | 1 | 36.6 |
| CN1CCC(C#Cc2cnc(Nc3ccnc(-c4cnn(S(=O)(=O)C5CC5)c4)n3)cc2N2CCC(C)(CO)CC2)CC1 [Example 182, (1-(2-((2-(1-(Cyclopropylsulfonyl)-1H-pyrazol-4-yl)pyrimidin-4-yl)amino)-5-((1-methylpiperidin-4-yl)ethynyl)pyridin-4-yl)-4-methylpiperidin-4-yl)methanol] | 1.7 | 648 | 0.1 | 0.1 | 0.3 |  |  |  |  |  |  |  |  |  |  | 0.4 | 1.8 | 0.1 | 0.04 | 0.4 |
| O=S(=O)(C1CC1)n1cc(-c2nccc(Nc3cc(N4C[C@@H]5[C@@H](CO)[C@@H]5C4)c(C#Cc4cnn(C(F)(F)F)c4)cn3)n2)cn1 [Example 331, ((1R,5S,6r)-3-(2-((2-(1-(Cyclopropylsulfonyl)-1H-pyrazol-4-yl)pyrimidin-4-yl)amino)-5-((1-(trifluoromethyl)-1H-pyrazol-4-yl)ethynyl)pyridin-4-yl)-3-azabicyclo[3.1.0]hexan-6-yl)methanol] | 9130 | > 10000 | 10.3 | 13.9 | 245 |  |  |  |  |  | 173 | 309 | 6.1 | 5 | 87.5 |  |  |  |  |  |
| CN(C)CCCn1cc(C#Cc2cnc(Nc3ccnc(-c4cnn(S(=O)(=O)C5CC5)c4)n3)cc2N2CCC3(CC2)CC(C)(O)C3)cn1 [Example 152, 7-(2-((2-(1-(Cyclopropylsulfonyl)-1H-pyrazol-4-yl)pyrimidin-4-yl)amino)-5-((1-(3-(dimethylamino)propyl)-1H-pyrazol-4-yl)ethynyl)pyridin-4-yl)-2-methyl-7-azaspiro[3.5]nonan-2-ol] | 0.8 | 196 | 0.3 | 0.2 | 0.4 |  |  |  |  |  |  |  |  |  |  | 0.2 | 0.6 | 0.2 | 0.1 | 0.1 |
| O=S(=O)(C1CC1)n1cc(-c2nccc(Nc3cc(N4CCC(F)CC4)c(C#Cc4cnn(C5CCOCC5)c4)cn3)n2)cn1 [Example 97, 2-(1-(Cyclopropylsulfonyl)-1H-pyrazol-4-yl)-N-(4-(4-fluoropiperidin-1-yl)-5-((1-(tetrahydro-2H-pyran-4-yl)-1H-pyrazol-4-yl)ethynyl)pyridin-2-yl)pyrimidin-4-amine] | 162 | > 10000 | 1.8 | 5.9 | 25.1 | 9.2 | 86.5 | 1.8 | 1.7 | 18.3 |  |  |  |  |  |  |  |  |  |  |
| CN(C)Cc1ccc(C#Cc2cnc(Nc3ccnc(-c4cnn(S(=O)(=O)C5CC5)c4)n3)cc2N2CCC(C)(CO)CC2)cc1 [Example 254, (1-(2-((2-(1-(Cyclopropylsulfonyl)-1H-pyrazol-4-yl)pyrimidin-4-yl)amino)-5-((4-((dimethylamino)methyl)phenyl)ethynyl)pyridin-4-yl)-4-methylpiperidin-4-yl)methanol] | 1.3 | 248 | 0.2 | 0.2 | 0.4 |  |  |  |  |  |  |  |  |  |  | 2.1 | 0.9 | 0.1 | 0.1 | 0.3 |
| O=S(=O)(C1CC1)n1cc(-c2nccc(Nc3cc(NC[C@H]4CC[C@@H](O)C4)c(C#Cc4cnn(C(F)F)c4)cn3)n2)cn1 [Example 306, (1R,3S)-3-(((2-((2-(1-(Cyclopropylsulfonyl)-1H-pyrazol-4-yl)pyrimidin-4-yl)amino)-5-((1-(difluoromethyl)-1H-pyrazol-4-yl)ethynyl)pyridin-4-yl)amino)methyl)cyclopentan-1-ol] | 6.8 | > 10000 | 1.6 | 3.9 | 4.6 |  |  |  |  |  |  |  |  |  |  | 4.3 | 14.6 | 1 | 0.4 | 3.4 |
